Assay results reported in US10556854B2, “Bacterial efflux pump inhibitors” (RUTGERS, THE STATE UNIVERSITY OF NEW JERSEY, priority 2016, dated 2020).
Structures can show the parent of a compound that is named as a salt.

How the values were obtained:
E. coli = experiment: MIC-based assay for potentiation of antibiotics that are known efflux pump substrates (Test A), E. coli; assay type: cell-based; conditions: fold lowering of MIC of antibiotic (e.g., clarithromycin and levofloxacin) with EPI compound at 1.6 to 12.5 μg/mL; Escherichia coli ATCC 25922
From the text: (§1) The ability of a compound disclosed herein to inhibit a bacterial efflux pump can be determined using a method like Test A or Test B as described in Example 13 and as shown in Table 1.
(§2) Test A. Minimum Inhibitory Concentration (MIC)-Based Assay for Potentiation of Antibiotics that are Known Efflux Pump Substrates:
(§3) MIC-based assays were used to evaluate the impact of potential efflux pump inhibiting (EPI) compounds on the MICs of antibiotics (e.g., clarithromycin and levofloxacin) known to be substrates for Gram-negative bacterial efflux pumps. The assays were conducted in accordance with Clinical and Laboratory Standards Institute (CLSI) guidelines for broth microdilution, with the modification that assays were conducted in the presence and absence of the test EPI compounds. When present, the EPI compounds were added to cation-adjusted Mueller-Hinton (CAMH) broth (Becton, Dickinson and Co., Franklin Lakes, N.J.) at a final concentration in the range of 1.6 to 12.5 μg/mL.
(§4) Log-phase Gram-negative bacteria were added to 96-well microtiter plates (at 5×10^5 colony forming units (CFU) per mL) containing two-fold serial dilutions of antibiotic in CAMH broth either in the absence or presence of the test EPI compounds. In all assays, each serial dilution of antibiotic was present in duplicate. The final volume in each well was 0.1 mL, and the microtiter plates were incubated aerobically for 24 hours at 37° C. Bacterial growth was then monitored by measuring the optical density (OD) at 600 nm using a VersaMax® plate reader (Molecular Devices, Inc., Sunnyvale, Calif.), with the MIC being defined as the lowest compound concentration at which growth was ≥90% inhibited compared to antibiotic-free control. The following Gram-negative bacterial strains were included in these assays: • Escherichia coli ATCC 25922 • Klebsiella pneumoniae ATCC 13883 and ATCC 10031 • Pseudomonas aeruginosa ATCC 27853. Test B. Fluorescence-Based Cellular Assay for Efflux Inhibition: […]

P. aeruginosa = experiment: MIC-based assay for potentiation of antibiotics that are known efflux pump substrates (Test A), P. aeruginosa; assay type: cell-based; conditions: fold lowering of MIC of antibiotic (e.g., clarithromycin and levofloxacin) with EPI compound at 1.6 to 12.5 μg/mL; Pseudomonas aeruginosa ATCC 27853
From the text: as §1, §2, §3, §4

SMILES | Active in E. coli (E. coli) | Active in P. aeruginosa (P. aeruginosa)
NCCC[C@H](N)CNC(CCc1ccccc1)CCc1ccccc1 [Example 1, (S)—N^1-(1,5-Diphenylpentan-3-yl)pentane-1,2,5-triamine 3 TFA] | ≥8x | <2x
NC[C@@H](N)CCCNC(CCc1ccccc1)CCc1ccccc1 [Example 2, (S)—N^5-(1,5-diphenylpentan-3-yl)pentane-1,2,5-triamine 3 TFA] | ≥16x | ≥4x
NCC[C@H](N)CNC(CCc1ccccc1)CCc1ccccc1 [Example 3, (S)—N^1-(1,5-diphenylpentan-3-yl)butane-1,2,4-triamine 3TFA] | ≥4x | ≥2x
NC[C@@H](N)CCNC(CCc1ccccc1)CCc1ccccc1 [Example 4, (S)—N^4-(1,5-diphenylpentan-3-yl)butane-1,2,4-triamine 3 TFA] | ≥2x | ≥2x
NCC[C@H](N)CCNC(CCc1ccccc1)CCc1ccccc1 [Example 5, (S)—N^1-(1,5-Diphenylpentan-3-yl)pentane-1,3,5-triamine 3 TFA] | ≥32x | ≥16x
NCCC[C@H](N)CNCC(CCc1ccccc1)CCc1ccccc1 [Example 7, (S)—N^1-(2-phenethyl-4-phenylbutyl)pentane-1,2,5-triamine 3TFA] | ≥32x | ≥32x
NC[C@@H](N)CCCNCC(CCc1ccccc1)CCc1ccccc1 [Example 8, (S)—N^5-(2-phenethyl-4-phenylbutyl)pentane-1,2,5-triaminium 2,2,2-trifluoroacetate] | ≥32x | ≥32x
CC(C)C(N)CC[C@H](N)CNCC(CCc1ccccc1)CCc1ccccc1 (stereo partly shown) [Example 9] | ≥128x | <2x
CC(C)C(N)CC[C@H](N)CNC(CCc1ccccc1)CCc1ccccc1.Cl.Cl.Cl (stereo partly drawn) [Example 10, (2S)—N^1-(1,5-diphenylpentan-3-yl)-6-methylheptane-1,2,5-triaminium chloride] | ≥256 x | <2x
NCC(N)COC(CCc1ccccc1)CCc1ccccc1 (stereo not shown) [Example 11, 3-((1,5-diphenylpentan-3-yl)oxy)propane-1,2-diamine] | <2x | <2x
NCC(N)COCC(CCc1ccccc1)CCc1ccccc1 (stereo not shown) [Example 12, 3-(2-phenethyl-4-phenylbutoxy)propane-1,2-diamine] | 8 x | <2x
